Measurements from US11292767B2, “Heterocyclic inhibitors of MCT4” (Vettore, LLC, priority 2016, dated 2022).

Legend:
[1] = Pharmacokinetic assay in rat (IV 3 mg/kg, PO 10 mg/kg); format: in vivo; details: male, Sprague-Dawley, plasma, read-out: Rat F (%)
Description: (§1) Pharmacokinetic Assays in Mouse and Rat
(§2) The following are assays that may be used to evaluate the pharmacokinetic properties of Formula (I) in mouse or rat. The assays follow a common procedure recited below.
(§3) 1. […] For PO (oral gavage), DMSO/PEG400 (10:90). Formulations freshly prepared on the day of dosing or prior to dosing. Storage at room temperature.
(§4) 2. Test Species: For Mouse: Male CD1 strain, approximately 6-8 weeks in age, approximately 20-30 g. For Rat: Male Sprague-Dawley strain, approximately 6-8 weeks in age, approximately 200-300 g.
(§5) 3. Dose Level: For IV, 3 mg/kg. For PO, 10 mg/kg.
(§6) 4. Number of animals: 3 per assay.
(§7) 5. PK time points: For IV (plasma): 5 min, 15 min, 1, 2, 4, 6, 8, 24 h post dose. For PO (plasma): 15 min, 30 min, 1, 2, 4, 6, 8, 24 h post dose.
(§8) 6. Blood Sample Collection and Processing. Blood was collected (˜0.2 mL per time point) from jugular vein. Blood of each sample was transferred into plastic micro centrifuge tubes containing anticoagulant of EDTA-K2. Blood samples were centrifuged at 2,000 g for 5 minutes at 4° C. to obtain plasma.
(§9) 7. Samples Analysis: Plasma samples were analyzed using LC/MS/MS method, and pharmacokinetic parameters (half-life: t1/2; oral bioavailability: F; volume of distribution: Vss).

[2] = system: CFA-induced arthritis; experiment: Adjuvant-induced arthritis model in rat: Difference of Weight Bearing test (DWB); format: in vivo; details: SD rat, PO 3 days post CFA, compared to dexamethasone
[3] = system: CFA-induced arthritis; experiment: Adjuvant-induced arthritis model in rat: Mechanical Allodynia test (MA); format: in vivo; details: SD rat, PO 3 days post CFA, compared to dexamethasone
[4] = molecular target: MCT1 (Homo sapiens (Human), UniProt P53985); experiment: Assay 4: MCT1-mediated lactate transport in BT20 breast cancer cells; format: cell-based
Experimental: (§10) Preparing BCECF-Loaded Cells
(§11) 10 µL of a 30 mM DMSO stock of BCECF-AM ester (Life Technologies) is added and the cells are incubated at 37° C. for 5 min. The cells are pelleted (300 g, 5 min), washed once with 1 mL Tyrode's Solution, pH 7.4, re-pelleted (300 g, 5 min), and resuspended in 1 mL Tyrode's Solution, pH 7.4.
Assay 4: MCT1-Mediated Lactate Transport in BT20 Breast Cancer Cells.
Preparation of BCECF loaded cells are as described for Assay 1. Lactate transport assay is as described for Assay 1, except 10 mM L-lactate (rather than 50 mM) is added.

[5] = Pharmacokinetic assay in mouse (IV 3 mg/kg, PO 10 mg/kg); format: in vivo; details: male, CD1, mouse, plasma, read-out: Mouse F (%)
Description: as §1, §2, §3, §4, §5, §6, §7, §8, §9

[6] = Metabolic stability in mouse liver microsomes (in vitro t1/2); format: in vitro ADME; details: mouse liver microsomes 0.5 mg/mL, 2 μM compound; for Mouse microsome % 60 min: % remaining at 60 min; for Mouse microsome t1/2, min: in vitro t1/2
How it was run: (§12)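 Liver microsomes (0.5 mg/mL final) were incubated with 2 μM test compound in the presence of NADPH, with aliquots taken at 0, 15, 30, 45 and 60 min. Parent remaining was quantified by LC-MS/MS. k was taken from the slope of ln(% remaining) versus time, and t1/2 = −0.693/k.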

[7] = Metabolic stability in human liver microsomes (in vitro t1/2); format: in vitro ADME; details: human liver microsomes 0.5 mg/mL, 2 μM compound, % remaining at 60 min
How it was run: as §12

[8] = Metabolic stability in rat liver microsomes (in vitro t1/2); format: in vitro ADME; details: rat liver microsomes 0.5 mg/mL, 2 μM compound; for Rat microsome % 60 min: % remaining at 60 min
How it was run: as §12

[9] = molecular target: MCT4 (Homo sapiens (Human), UniProt O15427); experiment: Assay 3: MCT4-mediated lactate transport in MDA-MB-231 breast cancer cells; format: cell-based; details: MDA-MB-231 cells
Experimental: as §10, §11
MCT4 activity may be assessed by monitoring the intracellular pH change that accompanies lactate/proton symport, using the pH-sensitive fluorescent dye 2′,7′-bis-(carboxyethyl)-5(6)-carboxyfluorescein (BCECF), in a manner similar to that previously reported for MCT1 and MCT4. The following is an exemplary procedure for assaying MCT4 activity of the compounds of Formula (I).

MCT1, sequence (P53985 whole entry): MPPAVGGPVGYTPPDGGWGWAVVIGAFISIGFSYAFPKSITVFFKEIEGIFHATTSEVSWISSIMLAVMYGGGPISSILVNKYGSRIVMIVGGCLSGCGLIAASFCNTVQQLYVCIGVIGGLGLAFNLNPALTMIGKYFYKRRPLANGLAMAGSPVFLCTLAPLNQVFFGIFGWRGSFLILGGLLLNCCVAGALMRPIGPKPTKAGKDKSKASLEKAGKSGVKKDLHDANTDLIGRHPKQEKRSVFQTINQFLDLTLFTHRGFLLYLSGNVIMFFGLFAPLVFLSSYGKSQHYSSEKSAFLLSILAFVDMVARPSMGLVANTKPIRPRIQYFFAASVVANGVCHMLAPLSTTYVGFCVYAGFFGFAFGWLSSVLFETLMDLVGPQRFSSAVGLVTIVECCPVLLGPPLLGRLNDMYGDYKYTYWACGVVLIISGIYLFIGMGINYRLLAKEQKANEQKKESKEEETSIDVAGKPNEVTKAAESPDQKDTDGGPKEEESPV
MCT1, sequence (P35613 140-385 partner): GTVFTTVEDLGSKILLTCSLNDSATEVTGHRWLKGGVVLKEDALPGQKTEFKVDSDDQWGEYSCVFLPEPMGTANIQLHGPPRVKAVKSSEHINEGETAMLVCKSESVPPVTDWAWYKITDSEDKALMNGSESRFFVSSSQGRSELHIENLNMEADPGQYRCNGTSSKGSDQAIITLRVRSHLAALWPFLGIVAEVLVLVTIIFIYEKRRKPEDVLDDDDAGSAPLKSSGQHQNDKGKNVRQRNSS
MCT4, sequence (O15427 whole entry, looked up): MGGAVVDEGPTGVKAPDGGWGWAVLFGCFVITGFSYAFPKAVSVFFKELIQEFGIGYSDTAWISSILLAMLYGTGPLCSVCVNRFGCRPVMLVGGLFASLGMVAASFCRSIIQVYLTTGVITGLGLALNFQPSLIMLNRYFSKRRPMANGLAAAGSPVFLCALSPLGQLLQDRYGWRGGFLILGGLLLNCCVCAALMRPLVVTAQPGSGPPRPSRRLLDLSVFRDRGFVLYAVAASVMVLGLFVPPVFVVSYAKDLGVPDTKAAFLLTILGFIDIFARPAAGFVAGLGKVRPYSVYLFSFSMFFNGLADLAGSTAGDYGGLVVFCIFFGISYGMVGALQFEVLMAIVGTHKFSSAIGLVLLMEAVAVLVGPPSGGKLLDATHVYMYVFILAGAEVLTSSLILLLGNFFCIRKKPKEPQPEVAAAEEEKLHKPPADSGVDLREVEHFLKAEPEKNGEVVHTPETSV
MCT4, sequence (P35613 whole entry partner, looked up): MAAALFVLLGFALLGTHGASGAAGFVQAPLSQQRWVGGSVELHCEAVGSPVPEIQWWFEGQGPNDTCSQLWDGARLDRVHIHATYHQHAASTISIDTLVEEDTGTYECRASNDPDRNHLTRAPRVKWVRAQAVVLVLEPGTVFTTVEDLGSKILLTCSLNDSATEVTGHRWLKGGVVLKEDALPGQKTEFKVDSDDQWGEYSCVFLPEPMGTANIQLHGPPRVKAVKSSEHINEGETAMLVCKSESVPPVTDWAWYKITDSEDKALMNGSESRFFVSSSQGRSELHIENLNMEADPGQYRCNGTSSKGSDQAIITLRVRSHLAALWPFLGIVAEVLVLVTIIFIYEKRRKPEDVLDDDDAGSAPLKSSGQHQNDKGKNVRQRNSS

Structure (SMILES): COc1cccc(-c2cc(COC(C)(C)C(=O)O)nn2Cc2ccccc2Cl)c1 [Example 14, 2-([1-[(2-Chlorophenyl)methyl]-5-(3-methoxyphenyl)1H-pyrazol-3-yl]methoxy)-2-methylpropanoic acid]
- bioavailability [1]: 64%
- Difference in Weight Bearing, Minimal Efficacious Dose [2]: 30 mg/kg
- Mechanical Allodynia (Von Frey), Minimal Efficacious Dose [3]: 30 mg/kg
- IC50 ([4]; lactate transport (Table 26)): > 100000 nM
- IC50 ([4]; lactate transport (Table 27)): > 100000 nM
- bioavailability [5]: 100%
- Mouse microsome % 60 min [6]: 95%
- Human microsome % 60 min [7]: 82%

Structure (SMILES): CC(C)(OCc1cc(-c2cccc(OC3CC3)c2)n(-c2ccccc2Cl)n1)C(=O)O [Example 110, 2-([1-(2-Chlorophenyl)-5-(3-cyclo-propoxyphenyl)-1H-pyrazol-3-yl]methoxy)-2-methylpropanoic acid]
- bioavailability [1]: 84%
- Difference in Weight Bearing, Minimal Efficacious Dose [2]: 10 mg/kg
- Mechanical Allodynia (Von Frey), Minimal Efficacious Dose [3]: 10 mg/kg
- bioavailability [5]: 100%
- Rat microsome % 60 min [8]: 94%
- Mouse microsome % 60 min [6]: 86%
- Human microsome % 60 min [7]: 99%

Structure (SMILES): CC(C)(OCc1cc(-c2cc(OC3CC3)cs2)n(Cc2ccccc2Cl)n1)C(=O)O [Example 130, 2-([1-[(2-Chlorophenyl)methyl]-5-(4-cyclopropoxythien-2-yl)-1H-pyrazol-3-yl]methoxy)-2-methylpropanoic acid]
- IC50 [9]: 98 nM
- IC50 ([4]; lactate transport (Table 27)): 55 nM

Structure (SMILES): CCn1ncc2ccc(-c3cc(COC(C)(C)C(=O)O)nn3Cc3ccccc3Cl)cc21 [Example 150, 2-([1-[(2-Chlorophenyl)methyl]-5-(1-ethyl-1H-indazol-6-yl)-1H-pyrazol-3-yl]-methoxy)-2-methylpropanoic Acid]
- bioavailability [1]: 43%
- Difference in Weight Bearing, Minimal Efficacious Dose [2]: 10 mg/kg
- Mechanical Allodynia (Von Frey), Minimal Efficacious Dose [3]: 10 mg/kg
- bioavailability [5]: 89%
- Rat microsome % 60 min [8]: 98%
- Mouse microsome t1/2, min [6]: ∞
- Human microsome % 60 min [7]: 90%

Structure (SMILES): CC(C)COc1cccc(-c2cc(COC(C)(C)C(=O)O)nn2-c2cccc3cnn(C)c23)c1 [Example 170, 2-methyl-2-([1-(1-methyl-1H-indazol-7-yl)-5-[3-(2-methylpropoxy)phenyl]-1H-pyrazol-3-yl]methoxy]propanoic acid]
- bioavailability [1]: 18%
- Difference in Weight Bearing, Minimal Efficacious Dose [2]: 3 mg/kg
- Mechanical Allodynia (Von Frey), Minimal Efficacious Dose [3]: 3 mg/kg
- bioavailability [5]: 100%
- Rat microsome % 60 min [8]: 95%
- Rat microsome t1/2, min ([8]; in vitro t1/2): ∞
- Mouse microsome % 60 min [6]: 99%
- Mouse microsome t1/2, min [6]: ∞
- Human microsome % 60 min [7]: 87%

Structure (SMILES): CCn1ncc2ccc(-c3cc(COC(C)(C)C(=O)O)nn3-c3ccccc3N3CCCC3)cc21 [Example 229, 2-([5-(1-ethyl-1H-indazol-6-yl)-1-[2-(pyrrolidin-1-yl)phenyl]-1H-pyrazol-3-yl]methoxy)-2-methylpropanoic acid]
- bioavailability [1]: 100%
- Difference in Weight Bearing, Minimal Efficacious Dose [2]: 3 mg/kg
- Mechanical Allodynia (Von Frey), Minimal Efficacious Dose [3]: 3 mg/kg
- bioavailability [5]: 100%
- Rat microsome % 60 min [8]: 69%
- Mouse microsome % 60 min [6]: 81%
- Human microsome % 60 min [7]: 64%

Structure (SMILES): CC(C)(OCc1cc(-c2cccc(OC3CC3)c2)n(-c2ccccc2N2CCC2)n1)C(=O)O [Example 232, 2-([1-[2-(Azetidin-1-yl)phenyl]-5-(3-cyclopropoxyphenyl)-1H-pyrazol-3-yl]-methoxy)-2-methylpropanoic acid]
- bioavailability [1]: 52%
- Difference in Weight Bearing, Minimal Efficacious Dose [2]: 1 mg/kg
- Mechanical Allodynia (Von Frey), Minimal Efficacious Dose [3]: 1 mg/kg
- bioavailability [5]: 56%
- Rat microsome % 60 min [8]: 50%
- Mouse microsome % 60 min [6]: 59%
- Human microsome % 60 min [7]: 65%

Structure (SMILES): CCCn1ncc2ccc(-c3cc(COC(C)(C)C(=O)O)nn3-c3ccccc3N3CCCC3)cc21 [Example 250, 2-Methyl-2-([5-(1-propyl-1H-indazol-6-yl)-1-[2-(pyrrolidin-1-yl)phenyl]-1H-pyrazol-3-yl]methoxy]propanoic acid]
- IC50 [9]: 1.3 nM
- IC50 ([4]; lactate transport (Table 27)): 41000 nM
